Assay results taken from US7790687B2, “Treatment for neurodegeneration” (Proximagen Ltd., priority 2005, dated 2010).
“Also recorded” adds a separate entry of the source.

Columns and labels:
[1] = test system: TH positive cells in primary ventral mesencephalic cultures; test: Survival of TH positive cells in primary ventral mesencephalic cultures without MPP+ treatment; format: cell-based, rat; settings: 24 hrs incubation, no MPP+ (no toxin), n=3
Description: (§1) Primary ventral mesencephalic cell cultures: Primary cell cultures were prepared by dissecting out the ventral mesencephalon from E14 rat foetuses. The dissected tissue was pooled and incubated with 0.1% Trypsin solution. This solution was then removed and replaced with Dulbecco's modified Eagles medium (DMEM) containing 10% foetal bovine serum (FBS) and 0.25% penicillin-streptomycin-neomycin (PSN), and the tissue centrifuged for 1 minute at 200 rpm at room temperature. The supernatant was then removed, fresh medium was added and the tissue mechanically dissociated using increasing fine bore fire-polished Pasteur pipettes. Cell density was assessed using a haematocytometer and cells were plated in culture medium containing 10% FBS and 0.25% PSN at a density of 1-1.5×10^5 on sterile coverslips coated with 0.01 % poly-D-lysine. After 4 days the culture medium was removed and replaced with fresh serum free DMEM prior to treatment with MPP+ or OPN. […]
(§2) Tyrosine hydroxylase (TH) immunohistochemistry: The culture medium was removed from the cells and the coverslips were fixed in 4% paraformaldehyde prior to peroxidase detection of TH using the ABC immunohistochemical method. Coverslips were mounted and examined using a Zeiss Axiophot microscope at a 50× magnification and the number of TH positive cells on each coverslip was manually counted in four fields chosen at random.(total area: 8 mm^2).

[2] = test system: TH positive cells in primary ventral mesencephalic cultures; test: Survival of TH positive cells in primary ventral mesencephalic cultures, pre-treatment followed by MPP+; format: cell-based, rat; settings: for effect on survival/death of TH positive cells: 24 hrs pre-treatment, n=3; for concentration of maximal efficacy (TH cell survival): lowest concentration used
Description: Primary ventral mesencephalic cell cultures: Primary cell cultures were prepared by dissecting out the ventral mesencephalon from E14 rat foetuses. The dissected tissue was pooled and incubated with 0.1% Trypsin solution. This solution was then removed and replaced with Dulbecco's modified Eagles medium (DMEM) containing 10% foetal bovine serum (FBS) and 0.25% penicillin-streptomycin-neomycin (PSN), and the tissue centrifuged for 1 minute at 200 rpm at room temperature. The supernatant was then removed, fresh medium was added and the tissue mechanically dissociated using increasing fine bore fire-polished Pasteur pipettes. Cell density was assessed using a haematocytometer and cells were plated in culture medium containing 10% FBS and 0.25% PSN at a density of 1-1.5×10^5 on sterile coverslips coated with 0.01 % poly-D-lysine. After 4 days the culture medium was removed and replaced with fresh serum free DMEM prior to treatment with MPP+ or OPN. Each treatment was done in triplicate per experiment and each series of experiments was repeated a further 2 times to give a final n=3.
Manipulation of the OPN system: Cultures were incubated with one of the following treatments for 24 hrs prior to MPP+ administration (either 10 μM or 2 μM MPP+): OPN protein (1, 5, 10, 25, 50 & 100 ng/ml), anti-OPN antibody (26.5, 53, 265, 530 ng/ml and 1.325, 2.65 μg/ml), anti-αv or anti-β3 integrin receptor subunit antibody (0.02, 0.04, 0.2, 0.4, 1 & 2 μg/ml). Control groups received no MPP+ treatment.
as §2

[3] = test system: TH positive cells in primary ventral mesencephalic cell cultures; test: MPP+ dose response on TH positive cell number in primary ventral mesencephalic cell cultures; format: cell-based, rat; settings: 24 hrs MPP+ exposure, 0.1-10 μM, n=3; read-out: EC50, dopaminergic (TH positive) cell death
Description: as §1
MPP+ dose response: MPP+ was dissolved in sterile PBS and the primary cell cultures were incubated for 24 hrs with one of the following concentrations of MPP+: 0.1, 0.5, 1, 2, 5, 10 μM MPP+ or vehicle (PBS). […] An EC50 was calculated (3.076±0.56) and a high (10 μM) or low (2 μM) MPP+ concentration was used to investigate the role of OPN in dopaminergic cell survival. […]

[4] = test system: OPN immunoreactivity in the rat SN; test: Intranigral LPS injection, OPN immunoreactivity in the SN; format: in vivo; settings: compared to saline treated animals
Description: (§3) Male Wistar rats (250-280 g) were obtained from Tuck (Essex, UK) and were kept on a 12 hour light/dark cycle at 21-24° C. with 55-65% humidity with unrestricted access to rat chow and water. All experiments were conducted according to the guidelines set out in the UK Animals (Scientific Procedures) Act 1986 and approved by the King's College London Ethics Committee.
(§4) Animals were randomly divided into 4 groups (n=16 in each group) anaesthetised with halothane (4% in 5%O2:95%CO2), placed in a stereotaxic frame (Kopf Instruments) with the incisor bar set at −3.3 mm and anaesthesia maintained using halothane (1.5-2%). The heads were shaved, scalp cut, skull exposed and a burr hole drilled on the left side of the skull. The following co-ordinates for the SN were used: AP: −4.8 mm, L: +2.0 mm, V: +8.0 mm (Paxinos & Watson, 1986). A 10 μl Hamilton syringe was used and 2 μl of LPS (n=8) (5 mg/ml dissolved in 0.9% sterile saline: E. coli 055:B5; Calbiochem, Nottingham, UK) or 2 μl of vehicle (0.9% sterile saline; n=8) was delivered over a period of 2 minutes. The needle was left in situ for a further 2 minutes before being slowly withdrawn. The wound was closed using Ethicon sutures and the animals allowed to recover from anaesthesia until freely moving before being returned to their home cages. […]

[5] = test system: TH positive cells in the rat SN; test: Intranigral LPS injection, TH immunoreactive cell number in the SN; format: in vivo; settings: compared to contralateral intact SN and to saline controls, present at 24, 48, 72 and 120 hrs
Description: as §3, §4

OPN protein fragment: 15 amino acid fragment of rat osteopontin containing the RGD αvβ3 integrin binding site and the α4 and α9 integrin subunit binding sites (TVDVPDGRGDSLAYG; listed as Rattus norvegicus)
effect on viability of TH positive cells [1]: not found to affect the viability; also recorded: no effect | effect on survival/death of TH positive cells ([2]; then 2 μM MPP+ for 24 hrs): almost completely protected dopaminergic cells; also recorded: increased TH cell survival | effect on survival/death of TH positive cells ([2]; then 10 μM MPP+ for 24 hrs): almost completely protected dopaminergic cells; also recorded: increased survival of TH positive cells | concentration of maximal efficacy (TH cell survival) ([2]; then 2 μM MPP+): 1 ng/mL | concentration of maximal efficacy (TH cell survival) ([2]; then 10 μM MPP+): 1 ng/mL

C[n+]1ccc(-c2ccccc2)cc1 [MPP+]
EC50 [3]: 3.08 ± 0.56 µM

lipopolysaccharide [LPS]
increase in OPN immunoreactivity [4]: 14 fold | decrease in TH positive cells in the LPS injected SN [5]: 70%
